# Target: FGFR4 (GST-FGFR4(388-802)) (Homo sapiens (Human), UniProt P22455)
# Assay: In-vitro biochemical kinase assay for FGFR4 (Caliper microfluidic mobility shift)
# Settings: biochemical FGFR4 assay; read-out: Biochemical IC50
# Chain of FGFR4 (GST-FGFR4(388-802)) (P22455 388-802): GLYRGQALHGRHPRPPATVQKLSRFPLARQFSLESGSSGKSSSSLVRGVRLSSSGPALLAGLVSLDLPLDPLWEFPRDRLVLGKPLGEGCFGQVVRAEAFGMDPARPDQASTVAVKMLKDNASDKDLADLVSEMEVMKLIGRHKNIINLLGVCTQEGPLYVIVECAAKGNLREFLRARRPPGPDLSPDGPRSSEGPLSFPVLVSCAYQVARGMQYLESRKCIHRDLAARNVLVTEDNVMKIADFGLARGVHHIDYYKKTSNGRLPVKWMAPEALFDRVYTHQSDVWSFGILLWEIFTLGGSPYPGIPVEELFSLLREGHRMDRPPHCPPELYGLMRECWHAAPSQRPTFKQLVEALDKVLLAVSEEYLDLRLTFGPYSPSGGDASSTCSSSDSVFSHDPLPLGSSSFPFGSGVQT
row,SMILES,IC50
1,"COc1cc(NC(=O)N2CCCc3cc(CN4CCN(C)CC4=O)c(C=O)nc32)ncc1C(F)(F)F [7-formyl-N-(4-methoxy-5-(trifluoromethyl)pyridin-2-yl)-6-((4-methyl-2-oxopiperazin-1-yl)methyl)-3,4-dihydro-1,8-naphthyridine-1(2H)-carboxamide]",89.5 nM
2,"CC(=O)N(C)Cc1cc2c(nc1C=O)N(C(=O)Nc1cc(O[C@H]3CCOC3)c(C#N)cn1)CCC2 [(S)-N-(5-cyano-4-((tetrahydrofuran-3-yl)oxy)pyridin-2-yl)-7-formyl-6-((N-methylacetamido)methyl)-3,4-dihydro-1,8-naphthyridine-1(2H)-carboxamide]",0.4 nM
3,"N#Cc1cnc(NC(=O)N2CCCc3cc(C(F)F)c(C=O)nc32)cc1OCC(F)(F)F [N-(5-cyano-4-(2,2,2-trifluoroethoxyl)pyridin-2-yl)-6-(difluoromethyl)-7-formyl-3,4-dihydro-1,8-naphthyridine-1(2H)-carboxamide]",110 nM
4,"CC(=O)N(C)Cc1cc2c(nc1C=O)N(C(=O)Nc1cc(OCC(F)(F)F)c(C#N)cn1)CCC2 [N-(5-cyano-4-(2,2,2-trifluoroethoxyl)pyridin-2-yl)-7-formyl-6-((N-methylacetamido)methyl)-3,4-dihydro-1,8-naphthyridine-1(2H)-carboxamide]",0.5 nM
5,"COCCOc1nc(NC(=O)N2CCCc3cc(C(F)F)c(C=O)nc32)ncc1C#N [N-(5-cyano-4-(2-methoxyethoxyl)pyrimidin-2-yl)-6-(difluoromethyl)-7-formyl-3,4-dihydro-1,8-naphthyridine-1(2H)-carboxamide]",28 nM
6,"COCC(C)(C)Nc1cc(NC(=O)N2CCCc3cc(C(F)F)c(C=O)nc32)ncc1C#N [N-(5-cyano-4-((1-methoxy-2-methylpropan-2-yl)amino)pyridin-2-yl)-6-(difluoromethyl)-7-formyl-3,4-dihydro-1,8-naphthyridine-1(2H)-carboxamide]",4.3 nM
7,"COCC(C)Nc1cc(NC(=O)N2CCCc3cc(CN(C)C(C)=O)c(C=O)nc32)ncc1C#N (stereo not drawn) [N-(5-cyano-4-((1-methoxypropan-2-yl)amino)pyridin-2-yl)-7-formyl-6-((N-methylacetamido)methyl)-3,4-dihydro-1,8-naphthyridine-1(2H)-carboxamide]",0.8 nM
8,"CC(=O)N(C)Cc1cc2c(nc1C=O)N(C(=O)Nc1cc(NCC(C)(C)O)c(C#N)cn1)CCC2 [N-(5-cyano-4-((2-hydroxy-2-methylpropyl)amino)pyridin-2-yl)-7-formyl-6-((N-methylacetamido)methyl)-3,4-dihydro-1,8-naphthyridine-1(2H)-carboxamide]",1.6 nM
9,"N#Cc1cnc(NC(=O)N2CCCc3cc(CO)c(C=O)nc32)cc1OCC1CNCCO1 (stereo not drawn) [N-(5-cyano-4-(morpholin-2-ylmethoxy)pyridin-2-yl)-7-formyl-6-(hydroxymethyl)-3,4-dihydro-1,8-naphthyridine-1(2H)-carboxamide]",350 nM

# Same assay, conditions: read-out: Biochemical FGFR4 IC50
row,SMILES,IC50
1,"N#Cc1cnc(NC(=O)N2CCCc3ccc(C=O)nc32)cc1OC1CCOC1 (racemic) [Example 40, N-(5-cyano-4-((tetrahydrofuran-3-yl)oxy)pyridin-2-yl)-7-formyl-3,4-dihydro-1,8-naphthyridine-1(2H)-carboxamide]",0.7 nM
2,"CC(C)Oc1cc(NC(=O)N2CCCc3cc(C4CCOC4)c(C=O)nc32)ncc1C#N (racemic) [Example 264, N-(5-cyano-4-isopropoxypyridin-2-yl)-7-formyl-6-(tetrahydrofuran-3-yl)-3,4-dihydro-1,8-naphthyridine-1(2H)-carboxamide]",1 nM
3,"Cc1cnc(NC(=O)N2CCCc3ccc(C=O)nc32)cc1C [Example 6, N-(4,5-dimethylpyridin-2-yl)-7-formyl-3,4-dihydro-1,8-naphthyridine-1(2H)-carboxamide]",110 nM
4,"Cc1ccc(NC(=O)N2CCOc3ccc(C=O)nc32)nc1 [Example 9, 6-formyl-N-(5-methylpyridin-2-yl)-2H-pyrido[3,2-b][1,4]oxazine-4(3H)-carboxamide]",190 nM
5,"O=Cc1nc2c(cc1F)CCCN2C(=O)Nc1ccc(C(F)(F)F)cn1 [Example 15, 6-fluoro-7-formyl-N-(5-(trifluoromethyl)pyridin-2-yl)-3,4-dihydro-1,8-naphthyridine-1(2H)-carboxamide]",45 nM
6,"CC(C)S(=O)(=O)c1ccccc1Nc1nc(NC(=O)N2CCCc3ccc(C=O)nc32)ncc1Cl [Example 16, N-(5-chloro-4-((2-(isopropylsulfonyl)phenyl)amino)pyrimidin-2-yl)-7-formyl-3,4-dihydro-1,8-naphthyridine-1(2H)-carboxamide]",0.2 nM
7,"O=Cc1nc2c(cc1CO)CCCN2C(=O)Nc1ccc(C(F)(F)F)cn1 [Example 18, 7-formyl-6-(hydroxymethyl)-N-(5-(trifluoromethyl)pyridin-2-yl)-3,4-dihydro-1,8-naphthyridine-1(2H)-carboxamide]",98 nM
8,"Cc1cc2c(nc1C=O)N(C(=O)Nc1ccc(C(F)(F)F)cn1)CCC2 [Example 20, 7-formyl-6-methyl-N-(5-(trifluoromethyl)pyridin-2-yl)-3,4-dihydro-1,8-naphthyridine-1(2H)-carboxamide]",68.5 nM
9,"CN1CCC2(CCN(c3cc(NC(=O)N4CCCc5ccc(C=O)nc54)ncc3C#N)CC2)C1 [Example 28, N-(5-cyano-4-(2-methyl-2,8-diazaspiro[4.5]decan-8-yl)pyridin-2-yl)-7-formyl-3,4-dihydro-1,8-naphthyridine-1(2H)-carboxamide]",3.4 nM
10,"N#Cc1ccc(NC(=O)N2CCCc3cc(C(F)F)c(C=O)nc32)nc1 [Example 37, N-(5-cyanopyridin-2-yl)-6-(difluoromethyl)-7-formyl-3,4-dihydro-1,8-naphthyridine-1(2H)-carboxamide]",19 nM
11,"CN(C)CCOc1cc(NC(=O)N2CCOc3ccc([13CH]=O)nc32)ncc1C#N [Example 77, N-(5-cyano-4-(2-(dimethylamino)ethoxy)pyridin-2-yl)-6-form-^13C-yl-2H-pyrido[3,2-b][1,4]oxazine-4(3H)-carboxamide]",43 nM
12,"N#Cc1cnc(NC(=O)N2CCCc3cc(CO)c(C=O)nc32)cc1NCCF [Example 88, N-(5-cyano-4-((2-fluoroethyl)amino)pyridin-2-yl)-7-formyl-6-(hydroxymethyl)-3,4-dihydro-1,8-naphthyridine-1(2H)-carboxamide]",2.3 nM
13,"COCCNc1cc(NC(=O)N2CCCc3cc(-n4cnc(C)n4)c(C=O)nc32)ncc1C#N [Example 260, N-(5-cyano-4-((2-methoxyethyl)amino)pyridin-2-yl)-7-formyl-6-(3-methyl-1H-1,2,4-triazol-1-yl)-3,4-dihydro-1,8-naphthyridine-1(2H)-carboxamide]",14 nM

# Same assay, conditions: read-out: IC50 in the biochemical assay
row,SMILES,IC50
1,"O=Cc1nc2c(cc1CO)CCCN2C(=O)Nc1nccc(O[C@H]2CCOC2)n1 [(S)-7-formyl-6-(hydroxymethyl)-N-(4-((tetrahydrofuran-3-yl)oxy)pyrimidin-2-yl)-3,4-dihydro-1,8-naphthyridine-1(2H)-carboxamide]",> 1000 nM
2,"COCCOc1cc(NC(=O)N2CCCc3cc(CN4CCCC4=O)c(C=O)nc32)ncc1C#N [N-(5-cyano-4-(2-methoxyethoxyl)pyridin-2-yl)-7-formyl-6-((2-oxopyrrolidin-1-yl)methyl)-3,4-dihydro-1,8-naphthyridine-1(2H)-carboxamide]",> 1000 nM

# From US9266883B2, “Ring-fused bicyclic pyridyl derivatives as FGFR4 inhibitors” (Novartis AG, priority 2013, dated 2016)
